Source: ChEMBL document CHEMBL4699511, “Cedrol, a Sesquiterpene Alcohol, Enhances the Anticancer Efficacy of Temozolomide in Attenuating Drug Resistance via Regulation of the DNA Damage Response and MGMT Expression” (J Nat Prod, 2020)
Active and inactive are the calls of the source. The rule behind the calls is not given here.

Assays:
DBTRG-05MG [1] = test: Cytotoxicity against human DBTRG-05MG cells assessed as reduction in cell viability after 24 hrs by MTT assay; type: functional, cell-based
DBTRG-05MG [2] = test: Cytotoxicity against human DBTRG-05MG cells assessed as reduction in cell viability after 48 hrs by MTT assay; type: functional, cell-based
DBTRG-05MG [3] = test: Cytotoxicity against human DBTRG-05MG cells assessed as reduction in cell viability after 72 hrs by MTT assay; type: functional, cell-based
RG2 [4] = test: Cytotoxicity against rat RG2 cells assessed as reduction in cell viability after 24 hrs by MTT assay; type: functional, cell-based; conditions: for IC50: RG2, 24 h
RG2 [5] = test: Cytotoxicity against rat RG2 cells assessed as reduction in cell viability after 48 hrs by MTT assay; type: functional, cell-based; conditions: for IC50: RG2, 48 h
RG2 [6] = test: Cytotoxicity against rat RG2 cells assessed as reduction in cell viability after 72 hrs by MTT assay; type: functional, cell-based; conditions: for IC50: RG2, 72 h
[7] = Cytotoxicity against rat CTX TNA2 cells assessed as reduction in cell viability after 24 hrs by MTT assay; type: cell-based; conditions: CTX TNA2, 24 h
[8] = Cytotoxicity against rat CTX TNA2 cells assessed as reduction in cell viability after 48 hrs by MTT assay; type: cell-based; conditions: CTX TNA2, 48 h
[9] = Cytotoxicity against rat CTX TNA2 cells assessed as reduction in cell viability after 72 hrs by MTT assay; type: cell-based; conditions: CTX TNA2, 72 h
DBTRG-05MG [10] = test: Synergistic cytotoxicity against human DBTRG-05MG cells assessed as synergistic effect index at 89.9 uM after 48 hrs in presence of 103 uM TMZ by MTT assay; type: functional
DBTRG-05MG [11] = test: Synergistic cytotoxicity against human DBTRG-05MG cells assessed as synergistic effect index at 89.9 uM after 48 hrs in presence of 309 uM TMZ by MTT assay; type: functional
RG2 [12] = test: Synergistic cytotoxicity against rat RG2 cells assessed as combination index at 112.4 uM after 48 hrs in presence of 103 uM TMZ by MTT assay; type: functional
[13] = Synergistic cytotoxicity against rat CTX TNA2 cells assessed as combination index at 112.4 uM after 48 hrs in presence of 309 uM TMZ by MTT assay; type: cell-based; conditions: ctx tna2, 48 h
DBTRG-05MG [14] = test: Induction of cell cycle arrest in human DBTRG-05MG cells assessed as accumulation at G0/G1 phase at 112.4 uM after 6 hrs by propidium iodide staining based flow cytometric analysis (reference value: 47.16 +/- 1.55%); type: functional
DBTRG-05MG [15] = test: Induction of cell cycle arrest in human DBTRG-05MG cells assessed as accumulation at S phase at 112.4 uM after 48 hrs by propidium iodide staining based flow cytometric analysis (reference value: 22.76 +/- 1.56%); type: functional
DBTRG-05MG [16] = test: Induction of cell cycle arrest in human DBTRG-05MG cells assessed as accumulation at G2/M phase at 112.4 uM after 48 hrs by propidium iodide staining based flow cytometric analysis (reference value: 30.08 +/- 0.1%); type: functional
RG2 [17] = test: Induction of cell cycle arrest in rat RG2 cells assessed as accumulation at G0/G1 phase at 112.4 uM after 48 hrs by propidium iodide staining based flow cytometric analysis (reference value: 57.81 +/- 1.9%); type: functional
DBTRG-05MG [18] = test: Inhibition of ERK phosphorylation at Tyr204 residues in human DBTRG-05MG cells at 112.4uM after 48 hrs in presence of TMZ by Western blot analysis (reference value: 1); type: cell-based
RG2 [19] = test: Induction of apoptosis in rat RG2 cells assessed as increase in DNA fragmentation at 112.4 uM after 48 hrs by TUNEL assay; type: functional, cell-based
DBTRG-05MG [20] = test: Induction of apoptosis in human DBTRG-05MG cells assessed as phosphorylated caspace-9 expression at 112.4 uM after 48 hrs in presence of TMZ by Western blot analysis (reference value: 1); type: functional
RG2 [21] = test: Induction of apoptosis in rat RG2 cells assessed as phosphorylated caspace-3 expression at 112.4 uM after 48 hrs by Western blot analysis (reference value: 1); type: functional
RG2 [22] = test: Induction of apoptosis in rat RG2 cells assessed as cleaved caspace-9 expression at 112.4 uM after 48 hrs in presence of TMZ by Western blot analysis (reference value: 1); type: functional
DBTRG-05MG [23] = test: Inhibition of TMZ-induced drug resistance in human DBTRG-05MG cells assessed as reduction in MGMT protein expression at 112.4 uM after 48 hrs by Immunohistochemistry method; type: functional, cell-based
[24] = Effect of CD133 expression in human DBTRG-05MG cells at 112.4 uM after 48 hrs by Western blot analysis; type: functional
[25] = Effect of CD133 expression in rat RG2 cells at 112.4 uM after 48 hrs by Western blot analysis; type: functional
[26] = Toxicity in BALB/c mouse xenografted with DBTRG-05MG cells assessed as reduction in body weight at 75 mg/kg, sc for 18 days co-treated with TMZ; type: organism-based; conditions: in vivo, 432 h, time 18 day
[27] = Toxicity in BALB/c mouse xenografted with DBTRG-05MG cells assessed as inflammatory cell infiltration score in liver at 5 mg/kg, ip for 5 days by H and E staining-based bright field microscopic analysis; type: organism-based; conditions: in vivo, 120 h, time 5 day
DBTRG-05MG [28] = test: Induction of cell cycle arrest in human DBTRG-05MG cells assessed as accumulation at G2/M phase at 206 uM after 6 hrs by propidium iodide staining based flow cytometric analysis (reference value: 30.08 +/- 0.1%); type: functional
DBTRG-05MG [29] = test: Induction of cell cycle arrest in human DBTRG-05MG cells assessed as accumulation at S phase at 206 uM after 12 hrs by propidium iodide staining based flow cytometric analysis (reference value: 22.76 +/- 1.56%); type: functional
DBTRG-05MG [30] = test: Induction of cell cycle arrest in human DBTRG-05MG cells assessed as accumulation at G2/M phase at 206 uM after 24 hrs by propidium iodide staining based flow cytometric analysis (reference value: 30.08 +/- 0.1%); type: functional
DBTRG-05MG [31] = test: Induction of cell cycle arrest in human DBTRG-05MG cells assessed as accumulation at G0/G1 phase at 206 uM after 48 hrs by propidium iodide staining based flow cytometric analysis (reference value: 47.16 +/- 1.55%); type: functional
DBTRG-05MG [32] = test: Induction of cell cycle arrest in human DBTRG-05MG cells assessed as CyclinB1 expression at 206 uM after 48 hrs by Western blot analysis (reference value: 1); type: functional
[33] = Effect on p38 expression in human DBTRG-05MG cells at 206 uM after 48 hrs by Western blot analysis (reference value: 1); type: functional
RG2 [34] = test: Induction of apoptosis in rat RG2 cells assessed as increase in apoptotic body formation at 206 uM after 48 hrs by TUNEL assay; type: functional, cell-based
RG2 [35] = test: Induction of apoptosis in rat RG2 cells assessed as Bax expression at 206 uM after 48 hrs by Western blot analysis (reference value: 1); type: functional
RG2 [36] = test: Induction of DNA damage in rat RG2 cells assessed as Chk1 phosphorylation at ser345 at 206 uM after 48 hrs by Western blot analysis (reference value: 1); type: functional

C[C@@H]1CC[C@H]2C(C)(C)[C@H]3C[C@@]12CC[C@@]3(C)O [CEDROL]
Activity (DBTRG-05MG [1]): Dose-dependent effect
IC50 (DBTRG-05MG [1]): 119 µM
Activity (DBTRG-05MG [2]): Dose-dependent effect
IC50 (DBTRG-05MG [2]): 102 µM
Activity (DBTRG-05MG [3]): Dose-dependent effect
IC50 (DBTRG-05MG [3]): 107 µM
Activity (RG2 [4]): Dose-dependent effect
IC50 (RG2 [4]): 107 µM
Activity (RG2 [5]): Dose-dependent effect
IC50 (RG2 [5]): 93.3 µM
Activity (RG2 [6]): Dose-dependent effect
IC50 (RG2 [6]): 89.2 µM
IC50 [7]: 238 µM
IC50 [8]: 280 µM
IC50 [9]: 255 µM
Activity_index (DBTRG-05MG [10]): 0.66
Activity_index (DBTRG-05MG [11]): 0.75
CI (RG2 [12]): 0.8
CI [13]: 1.09
Activity (DBTRG-05MG [14]): 53.26%
Activity (DBTRG-05MG [15]): 18.04%
Activity (DBTRG-05MG [16]): 28.83%
Activity (RG2 [17]): 61.9%
fold change (FC) (DBTRG-05MG [18]): 0.5
Activity (RG2 [19]): Active
fold change (FC) (DBTRG-05MG [20]): 0.4
fold change (FC) (RG2 [21]): 1.1
fold change (FC) (RG2 [22]): 1.8
inhibition (DBTRG-05MG [23]): Active
fold change (FC) [24]: 1.5
fold change (FC) [25]: 1
Activity [26]: Non-Toxic
Activity [27]: 2.38

Cn1nnc2c(C(N)=O)ncn2c1=O [TEMOZOLOMIDE]
IC50 (DBTRG-05MG [1]): 974 µM
IC50 (DBTRG-05MG [2]): 355 µM
IC50 (DBTRG-05MG [3]): 119 µM
IC50 (RG2 [4]): 962 µM
IC50 (RG2 [5]): 348 µM
IC50 (RG2 [6]): 107 µM
IC50 [7]: 666 µM
IC50 [8]: 487 µM
IC50 [9]: 431 µM
Activity (DBTRG-05MG [28]): 34.67%
Activity (DBTRG-05MG [29]): 22.29%
Activity (DBTRG-05MG [30]): 43.53%
Activity (DBTRG-05MG [31]): 22.95%
fold change (FC) (DBTRG-05MG [32]): 1.4
fold change (FC) [33]: 0.9
Activity (RG2 [34]): Active
fold change (FC) (RG2 [35]): 1.1
fold change (FC) (RG2 [36]): 1.8
